{"source": "PubChem BioAssay (NCI)", "note": "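Values below derive from 48-hour exposures of cells grown in 96-well plates, with endpoints linearly interpolated between the two concentrations bracketing the appropriate inhibition level. TGI denotes the concentration required for complete inhibition of growth.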", "data": [{"test_system": "RPMI-8226 leukemia", "test": "NCI-60 cell line screen, 48 h", "units": {"TGI": "µM"}, "values": [{"compound": "COc1ccc2c(c1)[n+]([O-])c(C(N)=O)c(N)[n+]2[O-]", "TGI": "> 100"}, {"compound": "Clc1ccc2cccc3c2c1C1OC3c2ccccc21", "note": "(stereo not drawn)", "TGI": "> 100"}, {"compound": "CCCCCCCCCCCCNC(=S)OC", "TGI": 27.5}, {"compound": "O=c1[nH]c2cc(Cl)ccc2nc1/C(=N\\Nc1ccccc1)C(O)c1ccc(Cl)c(Cl)c1", "note": "(stereo not drawn)", "TGI": "> 100"}, {"compound": "S=P1(Oc2ccccc2)NNP2(=NP(N3CC3)(N3CC3)=NP(N3CC3)(N3CC3)=N2)NN1", "note": "(stereo not drawn)", "TGI": "> 100"}, {"compound": "CN(C)CC1CCCC/C1=N/O", "note": "(stereo not drawn)", "TGI": "> 100"}, {"compound": "COc1c(CC(C)=O)ccc2c1C(=O)c1ccc(C=O)c(OC(C)=O)c1C2=O", "TGI": 63.3}]}, {"test_system": "HOP-92 NSCLC", "test": "NCI-60 cell line screen, 48 h", "units": {"TGI": "µM"}, "values": [{"compound": "COc1ccc2c(c1)[n+]([O-])c(C(N)=O)c(N)[n+]2[O-]", "TGI": "> 100"}, {"compound": "Clc1ccc2cccc3c2c1C1OC3c2ccccc21", "note": "(stereo not drawn)", "TGI": "> 100"}, {"compound": "CN(C)C(=S)/N=c1\\ssc(=S)n1C1CCCCC1", "TGI": 96.6}, {"compound": "CCCCCCCCCCCCNC(=S)OC", "TGI": 20.1}, {"compound": "O=c1[nH]c2cc(Cl)ccc2nc1/C(=N\\Nc1ccccc1)C(O)c1ccc(Cl)c(Cl)c1", "note": "(stereo not drawn)", "TGI": "> 100"}, {"compound": "CN(C)CC1CCCC/C1=N/O", "note": "(stereo not drawn)", "TGI": "> 100"}, {"compound": "COc1c(CC(C)=O)ccc2c1C(=O)c1ccc(C=O)c(OC(C)=O)c1C2=O", "TGI": 44.1}]}, {"test_system": "SK-MEL-5 melanoma", "test": "NCI-60 cell line screen, 48 h", "units": {"TGI": "µM"}, "values": [{"compound": "COc1ccc2c(c1)[n+]([O-])c(C(N)=O)c(N)[n+]2[O-]", "TGI": "> 100"}, {"compound": "CN(C)C(=S)/N=c1\\ssc(=S)n1C1CCCCC1", "TGI": 73.2}, {"compound": "CCCCCCCCCCCCNC(=S)OC", "TGI": 31}, {"compound": "O=c1[nH]c2cc(Cl)ccc2nc1/C(=N\\Nc1ccccc1)C(O)c1ccc(Cl)c(Cl)c1", "note": "(stereo not drawn)", "TGI": "> 100"}, {"compound": "S=P1(Oc2ccccc2)NNP2(=NP(N3CC3)(N3CC3)=NP(N3CC3)(N3CC3)=N2)NN1", "note": "(stereo not drawn)", "TGI": "> 100"}, {"compound": "CN(C)CC1CCCC/C1=N/O", "note": "(stereo not drawn)", "TGI": "> 100"}, {"compound": "COc1c(CC(C)=O)ccc2c1C(=O)c1ccc(C=O)c(OC(C)=O)c1C2=O", "TGI": 27.8}]}, {"test_system": "HCT-116 colon", "test": "NCI-60 cell line screen, 48 h", "units": {"TGI": "µM"}, "values": [{"compound": "COc1ccc2c(c1)[n+]([O-])c(C(N)=O)c(N)[n+]2[O-]", "TGI": "> 100"}, {"compound": "Clc1ccc2cccc3c2c1C1OC3c2ccccc21", "note": "(stereo not drawn)", "TGI": "> 100"}, {"compound": "CN(C)C(=S)/N=c1\\ssc(=S)n1C1CCCCC1", "TGI": 32.3}, {"compound": "CCCCCCCCCCCCNC(=S)OC", "TGI": 29.3}, {"compound": "O=c1[nH]c2cc(Cl)ccc2nc1/C(=N\\Nc1ccccc1)C(O)c1ccc(Cl)c(Cl)c1", "note": "(stereo not drawn)", "TGI": "> 100"}, {"compound": "S=P1(Oc2ccccc2)NNP2(=NP(N3CC3)(N3CC3)=NP(N3CC3)(N3CC3)=N2)NN1", "note": "(stereo not drawn)", "TGI": "> 100"}, {"compound": "CN(C)CC1CCCC/C1=N/O", "note": "(stereo not drawn)", "TGI": "> 100"}, {"compound": "COc1c(CC(C)=O)ccc2c1C(=O)c1ccc(C=O)c(OC(C)=O)c1C2=O", "TGI": 24.9}]}, {"test_system": "HL-60(TB) leukemia", "test": "NCI-60 cell line screen, 48 h", "units": {"TGI": "µM"}, "values": [{"compound": "COc1ccc2c(c1)[n+]([O-])c(C(N)=O)c(N)[n+]2[O-]", "TGI": "> 100"}, {"compound": "Clc1ccc2cccc3c2c1C1OC3c2ccccc21", "note": "(stereo not drawn)", "TGI": "> 100"}, {"compound": "CN(C)C(=S)/N=c1\\ssc(=S)n1C1CCCCC1", "TGI": 32.5}, {"compound": "CCCCCCCCCCCCNC(=S)OC", "TGI": 27.9}, {"compound": "O=c1[nH]c2cc(Cl)ccc2nc1/C(=N\\Nc1ccccc1)C(O)c1ccc(Cl)c(Cl)c1", "note": "(stereo not drawn)", "TGI": "> 100"}, {"compound": "S=P1(Oc2ccccc2)NNP2(=NP(N3CC3)(N3CC3)=NP(N3CC3)(N3CC3)=N2)NN1", "note": "(stereo not drawn)", "TGI": "> 100"}, {"compound": "CN(C)CC1CCCC/C1=N/O", "note": "(stereo not drawn)", "TGI": "> 100"}, {"compound": "COc1c(CC(C)=O)ccc2c1C(=O)c1ccc(C=O)c(OC(C)=O)c1C2=O", "TGI": 22.4}]}, {"test_system": "786-0 renal", "test": "NCI-60 cell line screen, 48 h", "units": {"TGI": "µM"}, "values": [{"compound": "COc1ccc2c(c1)[n+]([O-])c(C(N)=O)c(N)[n+]2[O-]", "TGI": "> 100"}, {"compound": "Clc1ccc2cccc3c2c1C1OC3c2ccccc21", "note": "(stereo not drawn)", "TGI": "> 100"}, {"compound": "CN(C)C(=S)/N=c1\\ssc(=S)n1C1CCCCC1", "TGI": 31.6}, {"compound": "CCCCCCCCCCCCNC(=S)OC", "TGI": 29.3}, {"compound": "O=c1[nH]c2cc(Cl)ccc2nc1/C(=N\\Nc1ccccc1)C(O)c1ccc(Cl)c(Cl)c1", "note": "(stereo not drawn)", "TGI": "> 100"}, {"compound": "S=P1(Oc2ccccc2)NNP2(=NP(N3CC3)(N3CC3)=NP(N3CC3)(N3CC3)=N2)NN1", "note": "(stereo not drawn)", "TGI": "> 100"}, {"compound": "CN(C)CC1CCCC/C1=N/O", "note": "(stereo not drawn)", "TGI": "> 100"}, {"compound": "COc1c(CC(C)=O)ccc2c1C(=O)c1ccc(C=O)c(OC(C)=O)c1C2=O", "TGI": 21.4}]}, {"test_system": "HOP-62 NSCLC", "test": "NCI-60 cell line screen, 48 h", "units": {"TGI": "µM"}, "values": [{"compound": "COc1ccc2c(c1)[n+]([O-])c(C(N)=O)c(N)[n+]2[O-]", "TGI": "> 100"}, {"compound": "Clc1ccc2cccc3c2c1C1OC3c2ccccc21", "note": "(stereo not drawn)", "TGI": "> 100"}, {"compound": "CN(C)C(=S)/N=c1\\ssc(=S)n1C1CCCCC1", "TGI": "> 100"}, {"compound": "CCCCCCCCCCCCNC(=S)OC", "TGI": 31.9}, {"compound": "O=c1[nH]c2cc(Cl)ccc2nc1/C(=N\\Nc1ccccc1)C(O)c1ccc(Cl)c(Cl)c1", "note": "(stereo not drawn)", "TGI": "> 100"}, {"compound": "S=P1(Oc2ccccc2)NNP2(=NP(N3CC3)(N3CC3)=NP(N3CC3)(N3CC3)=N2)NN1", "note": "(stereo not drawn)", "TGI": "> 100"}, {"compound": "CN(C)CC1CCCC/C1=N/O", "note": "(stereo not drawn)", "TGI": "> 100"}]}, {"test_system": "UACC-62 melanoma", "test": "NCI-60 cell line screen, 48 h", "units": {"TGI": "µM"}, "values": [{"compound": "Clc1ccc2cccc3c2c1C1OC3c2ccccc21", "note": "(stereo not drawn)", "TGI": "> 100"}]}]}
